Laboratory results reported in patent US20150018383A1, “BIOMARKERS OF RENAL DISORDERS” (Institut National de la Sante et de la Recherche Medicale …, priority 2011, published 2015).
Entries after “also recorded” stand apart in the source; their conditions may differ.

Legend:
[1] = test system: glomerular cells (TUNEL-positive nuclei); assay: Glomerular TUNEL apoptosis assay in kidney transplant biopsies; type: in vivo, human; settings: renal transplant recipients with lower eGFR, sirolimus-treated versus not treated
Description: (§1) The study was conducted on 80 renal transplant recipients followed at the Renal Transplant Department of Necker hospital.
Apoptosis was detected in 4-μm sections of paraffin-embedded kidneys by TUNEL assay using the In Situ Cell Death Detection kit (Roche) according to the manufacturer's protocol. The glomerular apoptotic index was calculated as the number of glomeruli with at least one TUNEL-positive nuclei for the total number of glomeruli. All the microscopic fields of a whole kidney section were quantified.

[2] = Urinary albumin excretion in renal transplant recipients; type: in vivo, human
Description: as §1
For human samples, urinary creatinine and albumin were determined using a Hitachi 917 analyzer (Roche Diagnostics), whereas plasma creatinine and sirolimus were evaluated using a Synchron Cx4 autoanalyser (Beckman Coulter) and high-performance liquid chromatography, respectively.

## CO[C@H]1C[C@@H]2CC[C@@H](C)[C@@](O)(O2)C(=O)C(=O)N2CCCC[C@H]2C(=O)O[C@H]([C@H](C)C[C@@H]2CC[C@@H](O)[C@H](OC)C2)CC(=O)[C@H](C)/C=C(\C)[C@@H](O)[C@@H](OC)C(=O)[C@H](C)C[C@H](C)/C=C/C=C/C=C/1C [sirolimus]
[1]
  glomerular apoptosis (TUNEL): marked increased of apoptosis; also recorded: increased glomerular apoptosis
[2]; cohort of kidney transplant recipients at different stages of renal failure
  development of albuminuria / proteinuria upon sirolimus treatment: only patients with severe nephron reduction developed albuminuria; also recorded: marked proteinuria
[2]; patient 1, on sirolimus administration
  urinary albumin excretion, serial follow-up: severe albuminuria
[2]; patient 2, after removal of sirolimus
  urinary albumin excretion, serial follow-up: reversed albuminuria
